Assay results reported in patent US20160083429A1, “COMPOSITIONS AND METHODS FOR ENDOTOXIN NEUTRALIZATION” (Immunotrex Biologics, Inc., priority 2014, published 2016).

Columns and labels:
[1] = ESI-MS detection of peptide-Lipid-A complex formation; format: binding; details: CHL/MeOH/H2O solutions; D-Lipid-A 0.005 mg/mL
Experimental: In this example, electrospray ionization mass spectrometry experiments were carried out on Lipid-A (D-Lipid-A) and peptides WK-11, KK-12, KK-11 under a variety of solution and mass spectrometry conditions. Binding of D-Lipid-A to WK-11, KK-12, KK-11 peptides was observed by mass spectrometry methods, as quite abundant ion (LipidA-peptide) complexes were detected from CHL/MeOH/H2O solutions.
Materials: Three peptides KFFKKFFKFFKK (SEQ ID NO: 1; KK-12), WKKWWKKWWKK (SEQ ID NO: 2; WK-11), and KKKKFFFKFFK (SEQ ID NO: 3; KK-11) were ordered from a custom commercial synthesis. Diphosphoryl Lip-A (D-Lipid-A) (C94O25N2P2H178) was obtained from Sigma.
Chemicals: chloroform (CHL), methanol (MeOH), Water (H2O), triethylamine (TEA), ammonium acetate.
Instrumentation: Micro-TOF ESI-MS (Bruker Daltonics); Q-Star-XL nano-ESI-MS (AB-SCIEX).
Solubility studies were performed in order to optimize the solubility of both the peptides and diphosphoryl Lipid A. Solution conditions for electrospray ionization mass spectrometry experiments on diphosphoryl Lipid A and peptides were evaluated using (CHL)X(MeOH)Y(H2O)Z, where X=0-70%; Y=0-70%; and Z=0-95%.
In one experiment, Diphosphoryl Lipid A (0.005 mg/mL) and WK-11 (0.005 mg/mL) were dissolved in 70% CHL/30% MeOH/0.5% water and evaluated by ESI-MS. Electrospray ionization mass spectrometry (ESI-MS) of peptide WK-11 and Lipid-A and detection of complex formation is shown in FIG. 6. Single circles show fragments assigned to the peptide. Double circles show lipid A bound to peptide WK-11.
In another experiment, Diphosphoryl Lipid A (0.005 mg/mL) and KK-12 (0.005 mg/mL) were dissolved in 70% CHL/30% MeOH/0.5% water and evaluated by ESI-MS. Single circles show fragments assigned to the peptide. Double circles show lipid A bound to peptide KK-12.
In another experiment, Diphosphoryl Lipid A (0.005 mg/mL) and KK-11 (0.015 mg/mL) were dissolved in 30% CHL/68% MeOH/2% water and evaluated by ESI-MS. Single circles show fragments assigned to the peptide. Double circles show lipid A bound to peptide KK-11.

[2] = ESI-MS competition ranking of Lipid A-binding propensities of peptides; details: for relative binding affinity Ka with D-Lipid-A, competition KK-12 vs KK-11 / relative binding affinity Ka with D-Lipid-A, competition WK-11 vs KK-12 / relative binding affinity Ka with D-Lipid-A, competition WK-11 vs KK-11: 0.0032 mg/mL each peptide; for relative binding affinity Ka with D-Lipid-A, competition KK-12 vs KK-11: D-lipid-A 0.005 mg/mL; for relative binding affinity Ka with D-Lipid-A, competition WK-11 vs KK-12: D-lipid-A 0.001-0.0050 mg/mL, FIG. 20A; for relative binding affinity Ka with D-Lipid-A, competition WK-11 vs KK-12 / relative binding affinity Ka with D-Lipid-A, competition WK-11 vs KK-11: R-ratios; for rank order of relative binding affinities (Ka) to D-lipid-A, combined data of Example 4: combined competition data; for relative binding affinity Ka with D-Lipid-A, competition WK-11 vs KK-11: increasing D-lipid-A, FIG. 20B
Description: ESI-MS based methods were used to rank binding affinities of peptides WK-11, KK-12, and KK-11 to diphosphoryl lipid A in CHL/MeOH/H2O, 45%/55%/0.05%, unless otherwise specified.
Materials and Chemicals were the same as shown in Example 3.
Instrumentation included Micro-TOF ESI-MS (Bruker Daltonics); FT-ICR-MS NanoDrop-2000 UV-Vis Spectrophotometer.
A series of ESI-MS competition experiments were designed to determine relative binding intensities of peptide-lipid A complexes in ESI-MS while varying the concentration of the D-lipid-A.
Then, an equal concentration of both peptides was employed, while increasing the concentration of the D-lipid-A in three experiments, as shown in FIGS. 12-14. Double circles surround lipid-A bound to peptide WK-11 (“1”) or lipid-A bound to KK-12 (“2”).
Resultant signal intensities of peptides and their complexes with D-lipid-A were used to plot R-ratios, determined as in Eq. 1, against D-Lipid-A concentrations.
R═Itotal(peptide:Lipid)/Itotal(peptide) [Eq. 1]
Comparison of the corresponding R-functions allows us to rank the peptides Ka binding constants, assuming that the value of the ratio between signal-response factors of complexes is approximately the same or deviates only weakly from the one for corresponding free peptides.
Then, an equal concentration of both peptides was employed, while increasing the concentration of the D-lipid-A in three experiments, two of which are shown in FIGS. 17-18. Double circles surround lipid-A bound to peptide WK-11 (“1”) or lipid-A bound to KK-11 (“2”).
Resultant signal intensities of peptides and their complexes with D-lipid-A were used to plot R-ratios, determined as in Eq. 1, against D-Lipid-A concentrations, as in Example 4B.

THP-1 cell line = assay: Peptides block effect of LPS in THP-1 cell line; format: cell-based, human; details: THP-1 stimulated with LPS 1 mg/mL, treated after 24 hours with peptide 0.5 mg/mL
Experimental: THP-1 is a human monocytic cell line derived from an acute monocytic leukemia patient. It is typically used to test immunocytochemical analysis of protein-protein interaction and immunohistochemistry. THP-1 cell line can provide continuous culture, grown in suspension, for example, RPMI 1640+10% FBS+2 mM L-glutamine. The average doubling time is 35 to 50 hrs. To inhibit bacterial growth, 1 mM sodium pyruvate, penicillin (100 units/mL) or streptomycin (100 ug/mL) can be employed. Cultures are typically maintained at between 2-9×10^5 cells/mL at 37 degrees C., and 5% CO2. The cells are generally non-adhesive.
THP-1 cell line in culture was stimulated with 1 mg/mL LPS.
In contrast, THP-1 stimulated with LPS (1 mg/mL) and then treated after 24 hours with Peptide 1 (KK-12)(SEQ ID NO: 1) (0.5 mg/mL).

Row | Substance | binding to Lipid A (complex formation detected by ESI-MS) [1] | relative binding affinity Ka with D-Lipid-A, competition KK-12 vs KK-11 [2] | relative binding affinity Ka with D-Lipid-A, competition WK-11 vs KK-12 [2] | rank order of relative binding affinities (Ka) to D-lipid-A, combined data of Example 4 [2] | effect on LPS-stimulated THP-1 cells (cell adherence, outer membrane shape and color) (THP-1 cell line) | relative binding affinity Ka with D-Lipid-A, competition WK-11 vs KK-11 [2]
1 | Angiotensin (DRVYIHPFHL; Angiotensin-1; UniProt P01019 25-34, looked up) [control standard peptide with size similar to KDEON peptides, reference compound] | no sign of binding propensity to D-Lipid-A | – | – | – | – | –
2 | KFFKKFFKFFKK [KK-12] | specifically binds to Lipid A | Ka(KK-11)>Ka (KK-12) | Ka(WK-11)>Ka(KK-12) | Ka(WK-11)≧Ka(KK-11)>Ka(KK-12) | appears to reverse the effects of LPS | –
3 | KKKKFFFKFFK [KK-11] | specifically binds to Lipid A | Ka(KK-11)>Ka (KK-12) | – | Ka(WK-11)≧Ka(KK-11)>Ka(KK-12) | – | Ka(WK-11)≧Ka(KK-11)
4 | WKKWWKKWWKK [WK-11] | specifically binds to Lipid A | – | Ka(WK-11)>Ka(KK-12) | Ka(WK-11)≧Ka(KK-11)>Ka(KK-12) | – | Ka(WK-11)≧Ka(KK-11)
